Laboratory results reported in ChEMBL document CHEMBL1201861, “Genomics of Drug Sensitity in Cancer screening data, Wellcome Trust Sanger Institute”.

Legend:
Experiment in all cases: cells
697 = type: functional, cell-based; settings: Homo sapiens
Description: SANGER: Inhibition of human 697 cell growth in a cell viability assay.

IA-LM = type: functional, cell-based, Homo sapiens; settings: Homo sapiens, IA-LM
Description: SANGER: Inhibition of human IA-LM cell growth in a cell viability assay.

DK-MG = type: functional, cell-based, Homo sapiens; settings: Homo sapiens, DK-MG
Description: SANGER: Inhibition of human DK-MG cell growth in a cell viability assay.

MFM-223 = type: functional, cell-based, Homo sapiens; settings: Homo sapiens, MFM-223
Description: SANGER: Inhibition of human MFM-223 cell growth in a cell viability assay.

SK-NEP-1 = type: functional, cell-based; settings: Homo sapiens
Description: SANGER: Inhibition of human SK-NEP-1 cell growth in a cell viability assay.

HAL-01 = type: functional, cell-based; settings: Homo sapiens
Description: SANGER: Inhibition of human HAL-01 cell growth in a cell viability assay.

A204 = type: functional, cell-based, Homo sapiens; settings: Homo sapiens, A204
Description: SANGER: Inhibition of human A204 cell growth in a cell viability assay.

JAR = type: functional, cell-based, Homo sapiens; settings: Homo sapiens, JAR
Description: SANGER: Inhibition of human JAR cell growth in a cell viability assay.

IST-SL1 = type: functional, cell-based, Homo sapiens; settings: Homo sapiens, IST-SL1
Description: SANGER: Inhibition of human IST-SL1 cell growth in a cell viability assay.

KS-1 = type: functional, cell-based, Homo sapiens; settings: Homo sapiens, KS-1
Description: SANGER: Inhibition of human KS-1 cell growth in a cell viability assay.

HuCCT-1 = type: functional, cell-based, Homo sapiens, HuCCT1; settings: Homo sapiens, HuCCT-1
Description: SANGER: Inhibition of human HuCCT1 cell growth in a cell viability assay.

TE-10 = type: functional, cell-based, Homo sapiens; settings: Homo sapiens, TE-10
Description: SANGER: Inhibition of human TE-10 cell growth in a cell viability assay.

H4 = type: functional, cell-based; settings: Homo sapiens
Description: SANGER: Inhibition of human H4 cell growth in a cell viability assay.

NB7 = type: functional, cell-based; settings: Homo sapiens
Description: SANGER: Inhibition of human NB7 cell growth in a cell viability assay.

MG-63 = type: functional, cell-based, Homo sapiens; settings: Homo sapiens, MG-63
Description: SANGER: Inhibition of human MG-63 cell growth in a cell viability assay.

RT-112 = type: functional, cell-based, Homo sapiens; settings: Homo sapiens, RT-112
Description: SANGER: Inhibition of human RT-112 cell growth in a cell viability assay.

HuP-T4 = type: functional, cell-based, Homo sapiens; settings: Homo sapiens, HuP-T4
Description: SANGER: Inhibition of human HuP-T4 cell growth in a cell viability assay.

LS-411N = type: functional, cell-based, Homo sapiens; settings: Homo sapiens, LS-411N
BFTC-905 = type: functional, cell-based, Homo sapiens; settings: Homo sapiens, BFTC-905
Description: SANGER: Inhibition of human BFTC-905 cell growth in a cell viability assay.

NTERA-2-cl-D1 = type: functional, cell-based, Homo sapiens; settings: Homo sapiens, NTERA-2-cl-D1
Description: SANGER: Inhibition of human NTERA-S-cl-D1 cell growth in a cell viability assay.

U-87 MG = type: functional, cell-based, U-87MG ATCC; settings: Homo sapiens
Description: SANGER: Inhibition of human U-87-MG cell growth in a cell viability assay.

A-431 = type: functional, cell-based, Homo sapiens; settings: Homo sapiens, A-431
Description: SANGER: Inhibition of human A431 cell growth in a cell viability assay.

BEN = type: functional, cell-based, Homo sapiens; settings: Homo sapiens, BEN
Description: SANGER: Inhibition of human BEN cell growth in a cell viability assay.

GCT = type: functional, cell-based, Homo sapiens; settings: Homo sapiens, GCT
Description: SANGER: Inhibition of human GCT cell growth in a cell viability assay.

KOSC-2 = type: functional, cell-based, Homo sapiens; settings: Homo sapiens, KOSC-2
Description: SANGER: Inhibition of human KOSC-2 cell growth in a cell viability assay.

CAL-33 = type: functional, cell-based, Homo sapiens; settings: Homo sapiens, CAL-33
Description: SANGER: Inhibition of human CAL-33 cell growth in a cell viability assay.

CTV-1 = type: functional, cell-based; settings: Homo sapiens
Description: SANGER: Inhibition of human CTV-1 cell growth in a cell viability assay.

OCI-AML2 = type: functional, cell-based; settings: Homo sapiens
Description: SANGER: Inhibition of human OCI-AML2 cell growth in a cell viability assay.

G-402 = type: functional, cell-based, Homo sapiens; settings: Homo sapiens, G-402
Description: SANGER: Inhibition of human G-402 cell growth in a cell viability assay.

KM12 = type: functional, cell-based, Homo sapiens; settings: Homo sapiens, KM12
Description: SANGER: Inhibition of human KM12 cell growth in a cell viability assay.

UACC-257 = type: functional, cell-based, Homo sapiens; settings: Homo sapiens, UACC-257
Description: SANGER: Inhibition of human UACC-257 cell growth in a cell viability assay.

HH = type: functional, cell-based; settings: Homo sapiens
Description: SANGER: Inhibition of human HH cell growth in a cell viability assay.

LAMA-84 = type: functional, cell-based; settings: Homo sapiens
Description: SANGER: Inhibition of human LAMA-84 cell growth in a cell viability assay.

OVCAR-4 = type: functional, cell-based, Homo sapiens; settings: Homo sapiens, OVCAR-4
Description: SANGER: Inhibition of human OVCAR-4 cell growth in a cell viability assay.

RPMI-7951 = type: functional, cell-based, Homo sapiens; settings: Homo sapiens, RPMI-7951
Description: SANGER: Inhibition of human RPMI-7951 cell growth in a cell viability assay.

KARPAS-299 = type: functional, cell-based; settings: Homo sapiens
Description: SANGER: Inhibition of human KARPAS-299 cell growth in a cell viability assay.

MC116 = type: functional, cell-based; settings: Homo sapiens
Description: SANGER: Inhibition of human MC116 cell growth in a cell viability assay.

BE-13 = type: functional, cell-based; settings: Homo sapiens
Description: SANGER: Inhibition of human BE-13 cell growth in a cell viability assay.

MEL-HO = type: functional, cell-based, Homo sapiens; settings: Homo sapiens, MEL-HO
Description: SANGER: Inhibition of human MEL-HO cell growth in a cell viability assay.

A-375 = type: functional, cell-based, Homo sapiens; settings: Homo sapiens, A-375
Description: SANGER: Inhibition of human A375 cell growth in a cell viability assay.

HCC1395 = type: functional, cell-based, Homo sapiens; settings: Homo sapiens, HCC1395
Description: SANGER: Inhibition of human HCC1395 cell growth in a cell viability assay.

SW1783 = type: functional, cell-based; settings: Homo sapiens
Description: SANGER: Inhibition of human SW1783 cell growth in a cell viability assay.

CAL-85-1 = type: functional, cell-based; settings: Homo sapiens
Description: SANGER: Inhibition of human CAL-85-1 cell growth in a cell viability assay.

NCI-H727 = type: functional, cell-based, Homo sapiens; settings: Homo sapiens, NCI-H727
Description: SANGER: Inhibition of human NCI-H727 cell growth in a cell viability assay.

UO-31 = type: functional, cell-based; settings: Homo sapiens
Description: SANGER: Inhibition of human U031 cell growth in a cell viability assay.

DOK = type: functional, cell-based, Homo sapiens; settings: Homo sapiens, DOK
Description: SANGER: Inhibition of human DOK cell growth in a cell viability assay.

KM-H2 = type: functional, cell-based; settings: Homo sapiens
Description: SANGER: Inhibition of human KM-H2 cell growth in a cell viability assay.

SK-OV-3 = type: functional, cell-based, Homo sapiens; settings: Homo sapiens, SK-OV-3
Description: SANGER: Inhibition of human SK-OV-3 cell growth in a cell viability assay.

NCI-H1581 = type: functional, cell-based, Homo sapiens; settings: Homo sapiens, NCI-H1581
Description: SANGER: Inhibition of human NCI-H1581 cell growth in a cell viability assay.

OMC-1 = type: functional, cell-based, Homo sapiens; settings: Homo sapiens, OMC-1
Description: SANGER: Inhibition of human OMC-1 cell growth in a cell viability assay.

KU812 cell line = type: functional, cell-based; settings: Homo sapiens
Description: SANGER: Inhibition of human KU812 cell growth in a cell viability assay.

CAMA-1 = type: functional, cell-based, Homo sapiens; settings: Homo sapiens, CAMA-1
Description: SANGER: Inhibition of human CAMA-1 cell growth in a cell viability assay.

HCC1806 = type: functional, cell-based, Homo sapiens; settings: Homo sapiens, HCC1806
Description: SANGER: Inhibition of human HCC1806 cell growth in a cell viability assay.

## C=CCNC1=C2C[C@@H](C)C[C@H](OC)[C@H](O)[C@@H](C)/C=C(\C)[C@H](OC(N)=O)[C@@H](OC)/C=C\C=C(/C)C(=O)NC(=CC1=O)C2=O [TANESPIMYCIN]
697
  IC50: > 1000 nM
IA-LM
  IC50: > 1000 nM
DK-MG
  IC50: 372 nM
MFM-223
  IC50: 264 nM
SK-NEP-1
  IC50: > 1000 nM
HAL-01
  IC50: > 1000 nM
A204
  IC50: 22.5 nM
JAR
  IC50: > 1000 nM
IST-SL1
  IC50: > 1000 nM
KS-1
  IC50: 13.6 nM
HuCCT-1
  IC50: 323 nM
TE-10
  IC50: 414 nM
H4
  IC50: 30.9 nM
NB7
  IC50: > 1000 nM
MG-63
  IC50: > 1000 nM
RT-112
  IC50: 140 nM
HuP-T4
  IC50: 129 nM
LS-411N
  IC50: 465 nM
BFTC-905
  IC50: 315 nM
NTERA-2-cl-D1
  IC50: 328 nM
U-87 MG
  IC50: 103 nM
A-431
  IC50: 82.1 nM
BEN
  IC50: > 1000 nM
GCT
  IC50: > 1000 nM
KOSC-2
  IC50: 177 nM
CAL-33
  IC50: > 1000 nM
CTV-1
  IC50: 527 nM
OCI-AML2
  IC50: 654 nM
G-402
  IC50: 47.9 nM
KM12
  IC50: 63.5 nM
UACC-257
  IC50: 822 nM
HH
  IC50: > 1000 nM
LAMA-84
  IC50: > 1000 nM
OVCAR-4
  IC50: > 1000 nM
RPMI-7951
  IC50: 7.17 nM
KARPAS-299
  IC50: > 1000 nM
MC116
  IC50: > 1000 nM
BE-13
  IC50: > 1000 nM
MEL-HO
  IC50: 72.6 nM
A-375
  IC50: 128 nM
HCC1395
  IC50: > 1000 nM
SW1783
  IC50: 340 nM
CAL-85-1
  IC50: > 1000 nM
NCI-H727
  IC50: > 1000 nM
UO-31
  IC50: 205 nM
DOK
  IC50: 49 nM
KM-H2
  IC50: > 1000 nM
SK-OV-3
  IC50: 176 nM
NCI-H1581
  IC50: 103 nM
OMC-1
  IC50: 118 nM
KU812 cell line
  IC50: 340 nM
CAMA-1
  IC50: 129 nM
HCC1806
  IC50: 71.3 nM
